In data set [1] the test system is Alcaligenes faecalis ATCC 8750. Description: Liquid growth inhibition assay (MIC/MBC). The note with it: PB medium, highest concentration tested 100 µM, triplicate. Format: cell-based. The protocol: (§1) During the purification procedure, the antimicrobial activities of the fractions were monitored by liquid growth inhibition assays against E. coli SBS 363, M. luteus A270, A. niger, and C. albicans MDM8. Bacteria were cultured in poor nutrient broth (PB) (1.0 g peptone in 100 mL of water containing 86 mM NaCl at pH 7.4; 217 mOsm), and fungi and yeasts were cultured in poor potato dextrose broth (1/2- strength PDB) (1.2 g potato dextrose in 100 mL of water at pH 5.0; 79 mOsm). Determination of antimicrobial activity was performed as previously described[12]–[14].
(§2) The MIC is defined as the minimum concentration of peptide required to achieve 100% growth inhibition. […] The two peptides were dissolved in ultrapure water at a final concentration of 1 mM. […] MBCs were determined after 96 h of incubation at 30 °C. The lowest concentration with no visible growth was defined as the MBC, indicating 99.5% killing of the original inoculum. Microbial growth was measured by monitoring the increase in optical density at 595 nm using a Victor 3TM 1420 multilabel counter (PerkinElmer, Waltham, MA, USA). Assays were performed in triplicate.

Data set [2] deals with Aspergillus niger. As to the kind of experiment: Liquid growth inhibition assay (MIC/MBC). Format: cell-based. The settings on record: 1/2-strength PDB, highest concentration tested 100 µM, triplicate. The protocol: as §1, §2
For data set [3], the system named is Bacillus megaterium ATCC 10778. Description: Liquid growth inhibition assay (MIC/MBC). The format is cell-based. The settings on record: PB medium, highest concentration tested 100 µM, triplicate. The procedure: as §1, §2
Data set [4] has as its system Bacillus subtilis ATCC 6633. Description: Liquid growth inhibition assay (MIC/MBC). Format: cell-based. The settings on record: PB medium, highest concentration tested 100 µM, triplicate. The protocol:
as §1, §2

In data set [5] the test system is Beauveria bassiana. As to the kind of experiment: Liquid growth inhibition assay (MIC/MBC). Format: cell-based. The settings on record: 1/2-strength PDB, highest concentration tested 100 µM, triplicate. The protocol: as §1, §2
The subject of data set [6] is Candida albicans MDM8. Description: Liquid growth inhibition assay (MIC/MBC). The format is cell-based. The note with it: 1/2-strength PDB, highest concentration tested 100 µM, triplicate. The protocol:
as §1, §2

Data set [7] has as its system Candida tropicalis IOC 4560. As to the kind of experiment: Liquid growth inhibition assay (MIC/MBC). The format is cell-based. The settings on record: 1/2-strength PDB, highest concentration tested 100 µM, triplicate. The protocol:
as §1, §2

The subject of data set [8] is Enterobacter cloacae β-12. Description: Liquid growth inhibition assay (MIC/MBC). The format is cell-based. The note with it: PB medium, highest concentration tested 100 µM, triplicate. The protocol:
as §1, §2

The subject of data set [9] is Escherichia coli D31. Description: Liquid growth inhibition assay (MIC/MBC). Format: cell-based. The note with it: PB medium, highest concentration tested 100 µM, triplicate. The protocol: as §1, §2
For data set [10], the system named is Escherichia coli SBS 363. As to the kind of experiment: Liquid growth inhibition assay (MIC/MBC). Format: cell-based. The note with it: PB medium, highest concentration tested 100 µM, triplicate. The protocol: as §1, §2
For data set [11], the system named is Micrococcus luteus A270. As to the kind of experiment: Liquid growth inhibition assay (MIC/MBC). Format: cell-based. The note with it: PB medium, highest concentration tested 100 µM, triplicate. The procedure:
as §1, §2

Data set [12] concerns Pseudomonas aeruginosa ATCC 27853. Description: Liquid growth inhibition assay (MIC/MBC). The settings on record: PB medium, highest concentration tested 100 µM, triplicate. Format: cell-based. The procedure:
as §1, §2

Data set [13] relates to Saccharomyces cerevisiae PM340. Description: Liquid growth inhibition assay (MIC/MBC). The format is cell-based. The settings on record: 1/2-strength PDB, highest concentration tested 100 µM, triplicate. The protocol: as §1, §2
The test system of data set [14] is Salmonella Arizonae ATCC 13314. As to the kind of experiment: Liquid growth inhibition assay (MIC/MBC). The settings on record: PB medium, highest concentration tested 100 µM, triplicate. Format: cell-based. The procedure:
as §1, §2

Data set [15] relates to Salmonella Typhimurinum ATCC 14028. Description: Liquid growth inhibition assay (MIC/MBC). The format is cell-based. The note with it: PB medium, highest concentration tested 100 µM, triplicate. The procedure: as §1, §2
For data set [16], the system named is Serratia marcescens ATCC 4112. Description: Liquid growth inhibition assay (MIC/MBC). The format is cell-based. The note with it: PB medium, highest concentration tested 100 µM, triplicate. The procedure: as §1, §2
For data set [17], the system named is Staphylococcus aureus ATCC 29213. Description: Liquid growth inhibition assay (MIC/MBC). Format: cell-based. The settings on record: PB medium, highest concentration tested 100 µM, triplicate. The procedure: as §1, §2
For data set [18] the following is noted: 25% fresh human blood plasma in water, 37 °C; 20 µL of 10 mg/mL peptide stock in 1 mL; TFA quench; LC/ESI-MS peak area; triplicate; followed over 360 min. The procedure: An aliquot (20 μL) of the aqueous peptide stock solution (10 mg/mL) was added to 1 mL of 25% solution of fresh human blood plasma in water at 37 °C. Aliquots (50 μL) were withdrawn and added to 5 μL of pure trifluoroacetic acid (TFA) at different time intervals, then incubated at 5 °C for 15 min. Following incubation, the resulting mixtures were centrifuged at 3000 g for 5 min. The supernatants (20 μL) were injected into an online LC/ESI-MS equipment. Elution was performed using an ACN/TFA linear gradient of 3% to 57% ACN at a flow rate of 0.3 mL/min for 30 min. The remaining peptide was monitored by the corresponding peak area in the chromatogram. Assays were conducted in triplicate.
The human blood sample was obtained from a healthy adult donor at Vital Brazil Hospital in accordance with Ethical Guidelines of the Butantan Institute (protocol CEUAIB No. I-1043/13). Written informed consent was obtained from the donor.

Data set [19] concerns human erythrocytes. Description: Haemolytic activity. The format is cell-based. The settings on record: 3% erythrocytes in PBS, 3 h, 37 °C; for Haemolysis (%): A414, relative to 0.1% Triton X-100, triplicate. The procedure:
Absorbance in the supernatant was measured at 414 nm. The haemolysis percentage was expressed in relation to a 100% lysis control (erythrocytes incubated with 0.1% Triton X-100); PBS was used as a negative control. Assays were conducted in triplicate.
Red blood cells were obtained under the same conditions and from the same donor mentioned in the plasma stability assay section.

In data set [20] the test system is All of the microorganisms tested. Description: Antimicrobial activity, summary over all microorganisms tested. Format: cell-based. The note with it: summary of Table 1; 17 bacterial, yeast and fungal strains. The procedure: as §1, §2
The mark [21] stands for this setting: 100% growth inhibition, two-fold serial dilution, 30 °C, 18 h.
The mark [22] stands for this setting: no visible growth after 96 h at 30 °C.

Experimental findings from article PMC6754450, “Antimicrobial activity and mechanism of action of a novel peptide present in the ecdysis process of centipede Scolopendra subspinipes subspinipes” (Scientific Reports, 2019) are described below.

Each structure is given as a SMILES string. ≈ marks a conversion by molar mass, not a printed value. Where a SMILES comes first, the peptide text is derived from it.

Broadly, the MIC is the lowest concentration found to suppress growth. The low end stands for inhibition by little substance, the high end for a need for much substance. For `CC(C)[C@H](N)C(=O)N[C@@H](C)C(=O)N[C@@H](CCC(=O)O)C(=O)N[C@@H](C)C(=O)N[C@@H](CCCNC(=N)N)C(=O)N[C@@H](CCC(N)=O)C(=O)NCC(=O)N[C@@H](CO)C(=O)N[C@@H](Cc1ccccc1)C(=O)N[C@@H](CO)C(=O)N[C@@H](Cc1ccc(O)cc1)C(=O)O` [Pinipesin] (H-VAEARQGSFSY-OH), the MIC in data set [1] (setting [21]) stood at 15.16 µg/mL (≈ 12.5 µM); in [2] (setting [21]) it was 30.33 µg/mL (≈ 25 µM); in data set [3] (setting [21]) it was 15.16 µg/mL (≈ 12.5 µM); in data set [4] (setting [21]), 30.33 µg/mL (≈ 25 µM); in [5] (setting [21]), 30.33 µg/mL (≈ 25 µM); in [6] (setting [21]), 30.33 µg/mL (≈ 25 µM). For the same molecule, the MIC was determined as 30.33 µg/mL (≈ 25 µM) in data set [7] (setting [21]); 30.33 µg/mL (≈ 25 µM) in data set [8] (setting [21]); 15.16 µg/mL (≈ 12.5 µM) in data set [9] (setting [21]); 30.33 µg/mL (≈ 25 µM) in [10] (setting [21]); 7.58 µg/mL (≈ 6.24 µM) in [11] (setting [21]); 15.16 µg/mL (≈ 12.5 µM) in data set [12] (setting [21]). Besides, the MIC in data set [13] (setting [21]) is 30.33 µg/mL (≈ 25 µM); in [14] (setting [21]), 30.33 µg/mL (≈ 25 µM); in [15] (setting [21]), 15.16 µg/mL (≈ 12.5 µM); in data set [16] (setting [21]), 30.33 µg/mL (≈ 25 µM); in data set [17] (setting [21]) it was 7.58 µg/mL (≈ 6.24 µM). The MBC in data set [1] (setting [22]) came out at 15.16 µg/mL (≈ 12.5 µM); in [2] (setting [22]), 30.33 µg/mL (≈ 25 µM); in data set [3] (setting [22]), 15.16 µg/mL (≈ 12.5 µM); in data set [4] (setting [22]) it was 30.33 µg/mL (≈ 25 µM); in data set [5] (setting [22]), 30.33 µg/mL (≈ 25 µM); in data set [6] (setting [22]), 30.33 µg/mL (≈ 25 µM). Also, the MBC in data set [7] (setting [22]) amounted to 30.33 µg/mL (≈ 25 µM); in data set [8] (setting [22]), 30.33 µg/mL (≈ 25 µM); in [9] (setting [22]), 15.16 µg/mL (≈ 12.5 µM); in data set [10] (setting [22]), 30.33 µg/mL (≈ 25 µM); in data set [11] (setting [22]) it was 15.16 µg/mL (≈ 12.5 µM); in data set [12] (setting [22]), 15.16 µg/mL (≈ 12.5 µM). Also, the MBC in data set [13] (setting [22]) is on record as 30.33 µg/mL (≈ 25 µM); in data set [14] (setting [22]), 30.33 µg/mL (≈ 25 µM); in [15] (setting [22]), 15.16 µg/mL (≈ 12.5 µM); in data set [16] (setting [22]), 30.33 µg/mL (≈ 25 µM); in [17] (setting [22]), 7.58 µg/mL (≈ 6.24 µM). In data set [18], the “Time within which peptide is almost totally digested in human plasma” value is no more than 60 min. The “Haemolysis (%)” value in data set [19] (4 µM peptide), in data set [19] (8 µM peptide), in data set [19] (16 µM peptide), in data set [19] (32 µM peptide), in data set [19] (125 µM peptide) and in data set [19] (250 µM peptide) was 0% throughout. Besides, the “Haemolysis (%)” value in [19] (500 µM peptide) was found to be 25.14%. For the same molecule, the “Haemoglobin release at the concentrations active against bacteria, yeasts and fungi” value in data set [19] is recorded as “No haemoglobin release was observed”.
Take `CC(=O)N[C@H](C(=O)N[C@@H](C)C(=O)N[C@@H](CCC(=O)O)C(=O)N[C@@H](C)C(=O)N[C@@H](CCCNC(=N)N)C(=O)N[C@@H](CCC(N)=O)C(=O)NCC(=O)N[C@@H](CO)C(=O)N[C@@H](Cc1ccccc1)C(=O)N[C@@H](CO)C(=O)N[C@@H](Cc1ccc(O)cc1)C(N)=O)C(C)C` [Pinipesin AC] (Ac-VAEARQGSFSY-NH2): in data set [20], the “Concentrations at which active against all microorganisms tested” value is “did not show antimicrobial activity”. In addition, the “Time within which peptide is almost totally digested in human plasma” value in data set [18] is no more than 60 min.
